# Source: patent publication US20250346569A1, “NEW DERIVATIVES FOR TREATING TRPM3 MEDIATED DISORDERS” (Katholieke Universiteit Leuven, priority 2022, published 2025)
# Target: T1, mouse TRPM3α2 (mTRPM3) ion channel (Mus musculus, UniProt J9SQF3)
# T1 construct: expressed in transfected cells; host or cells: flip-in HEK293
# Test: Monitoring the TRPM3 ion channel driven Ca2+ uptake (Fluo-4 AM assay)
# Type: cell-based
# Conditions: TRPM3 overexpressing flip-in HEK293 cells, channel stimulated with Pregnenolone sulfate (PS) 50 μM
# How it was run: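 Flp-In HEK293 cells overexpressing mTRPM3α2, loaded with Fluo-4 AM and added to wells holding compound plus 50 μM pregnenolone sulfate in Ca2+-containing Krebs buffer. Fluorescence (ex 485/em 535) read right after cell addition. Inhibition normalised to vehicle and positive-control inhibitor; IC50 derived.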
# T1 sequence (J9SQF3 1-1709 isoform J9SQF3-12): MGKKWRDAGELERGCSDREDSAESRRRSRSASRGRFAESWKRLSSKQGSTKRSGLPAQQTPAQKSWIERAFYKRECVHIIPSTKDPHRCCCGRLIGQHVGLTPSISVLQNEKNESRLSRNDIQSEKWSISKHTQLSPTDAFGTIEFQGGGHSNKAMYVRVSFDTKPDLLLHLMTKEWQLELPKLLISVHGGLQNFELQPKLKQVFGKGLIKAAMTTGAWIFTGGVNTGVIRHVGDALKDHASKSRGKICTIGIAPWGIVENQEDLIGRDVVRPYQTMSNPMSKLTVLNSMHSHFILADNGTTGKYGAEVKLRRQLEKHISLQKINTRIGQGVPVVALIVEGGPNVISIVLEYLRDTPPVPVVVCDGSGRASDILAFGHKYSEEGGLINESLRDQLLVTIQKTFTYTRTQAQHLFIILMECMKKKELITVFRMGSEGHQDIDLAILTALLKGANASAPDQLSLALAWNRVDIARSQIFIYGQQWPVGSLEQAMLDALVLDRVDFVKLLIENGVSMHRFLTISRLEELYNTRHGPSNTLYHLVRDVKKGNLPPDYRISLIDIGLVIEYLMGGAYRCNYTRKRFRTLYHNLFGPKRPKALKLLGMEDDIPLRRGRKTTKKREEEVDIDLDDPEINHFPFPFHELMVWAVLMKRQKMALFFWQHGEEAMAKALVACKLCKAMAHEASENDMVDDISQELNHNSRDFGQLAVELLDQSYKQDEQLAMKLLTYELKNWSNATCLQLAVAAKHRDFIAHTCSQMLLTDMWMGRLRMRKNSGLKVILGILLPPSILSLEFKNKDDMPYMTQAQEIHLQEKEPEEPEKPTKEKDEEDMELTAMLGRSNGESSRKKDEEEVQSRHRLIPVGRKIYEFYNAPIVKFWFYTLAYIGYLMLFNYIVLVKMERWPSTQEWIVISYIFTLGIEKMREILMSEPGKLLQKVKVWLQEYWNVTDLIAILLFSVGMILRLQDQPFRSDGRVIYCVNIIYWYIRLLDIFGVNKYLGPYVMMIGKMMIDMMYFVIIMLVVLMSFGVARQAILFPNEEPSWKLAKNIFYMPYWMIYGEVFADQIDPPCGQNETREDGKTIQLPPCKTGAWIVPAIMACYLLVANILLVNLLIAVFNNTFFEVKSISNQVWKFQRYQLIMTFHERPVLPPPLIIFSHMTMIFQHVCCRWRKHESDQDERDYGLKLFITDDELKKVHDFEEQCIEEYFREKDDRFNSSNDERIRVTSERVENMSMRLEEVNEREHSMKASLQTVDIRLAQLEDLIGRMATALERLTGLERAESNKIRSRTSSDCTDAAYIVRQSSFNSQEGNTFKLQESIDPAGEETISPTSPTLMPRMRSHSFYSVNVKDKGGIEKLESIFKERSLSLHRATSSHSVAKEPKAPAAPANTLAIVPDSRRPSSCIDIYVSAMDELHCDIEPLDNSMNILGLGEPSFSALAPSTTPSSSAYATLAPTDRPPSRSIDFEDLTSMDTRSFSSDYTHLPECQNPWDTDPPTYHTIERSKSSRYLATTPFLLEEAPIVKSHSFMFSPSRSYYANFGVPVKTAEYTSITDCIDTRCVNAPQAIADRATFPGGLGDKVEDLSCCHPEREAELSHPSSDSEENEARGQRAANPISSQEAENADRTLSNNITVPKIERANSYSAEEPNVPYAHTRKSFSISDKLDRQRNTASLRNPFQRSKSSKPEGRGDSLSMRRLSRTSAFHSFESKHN
row,SMILES,IC50
1,"Cc1sc2ccc(OCc3cccnc3C(F)(F)F)cc2c1C(=O)NC(C)(C)C(N)=O [Cpd 065, 2-methyl-2-[(2-methyl-5-{[2-(trifluoromethyl)pyridin-3-yl]methoxy}-1-benzothiophen-3-yl)formamido]propanamide]",< 1000 nM
2,"Cc1sc2ccc(OCc3cccnc3O)cc2c1C(=O)NC(C)(C)C(N)=O [Cpd 066, 2-({5-[(2-hydroxypyridin-3-yl)methoxy]-2-methyl-1-benzothiophen-3-yl}formamido)-2-methylpropanamide]",< 1000 nM
3,"Cc1sc2ccc(OCC3CC3)cc2c1C(=O)NC(C)(CO)CO [Cpd 069, 5-(cyclopropylmethoxy)-N-(1,3-dihydroxy-2-methylpropan-2-yl)-2-methyl-1-benzothiophene-3-carboxamide]",< 1000 nM
4,"Cc1sc2ccc(OCc3ccccc3F)cc2c1C(=O)NC1(C(N)=O)CCOCC1 [Cpd 070, 4-{5-[(2-fluorophenyl)methoxy]-2-methyl-1-benzothiophene-3-amido}oxane-4-carboxamide]",< 1000 nM
5,"Cc1sc2ccc(OCc3ccccn3)cc2c1C(=O)NC1(C(N)=O)CCOCC1 [Cpd 071, 4-{2-methyl-5-[(pyridin-2-yl)methoxy]-1-benzothiophene-3-amido}oxane-4-carboxamide]",< 1000 nM
6,"Cc1sc2ccc(OCc3cccnc3O)cc2c1C(=O)NC1(C(=O)O)CCOCC1 [Cpd 072, 4-{5-[(2-hydroxypyridin-3-yl)methoxy]-2-methyl-1-benzothiophene-3-amido}oxane-4-carboxylic acid]",> 20000 nM
7,"Cc1sc2ccc(OCc3ccccc3)cc2c1C(=O)NC1(CO)CC1 [Cpd 073, 5-(benzyloxy)-N-[1-(hydroxymethyl)cyclopropyl]-2-methyl-1-benzothiophene-3-carboxamide]",1000 to 20000 nM
8,"Cc1sc2ccc(OCc3ccccc3F)cc2c1C(=O)NC1(CO)CC1 [Cpd 074, 5-[(2-fluorophenyl)methoxy]-N-[1-(hydroxymethyl)cyclopropyl]-2-methyl-1-benzothiophene-3-carboxamide]",< 1000 nM
9,"Cc1sc2ccc(OCc3ccccn3)cc2c1C(=O)NC1(CO)CC1 [Cpd 075, N-[1-(hydroxymethyl)cyclopropyl]-2-methyl-5-[(pyridin-2-yl)methoxy]-1-benzothiophene-3-carboxamide]",1000 to 20000 nM
10,"Cc1sc2ccc(OCc3cccnc3C(F)(F)F)cc2c1C(=O)NC1(CO)CC1 [Cpd 076, N-[1-(hydroxymethyl)cyclopropyl]-2-methyl-5-{[2-(trifluoromethyl)pyridin-3-yl]methoxy}-1-benzothiophene-3-carboxamide]",< 1000 nM
11,"Cc1sc2ccc(OCc3ccccc3F)cc2c1C(=O)NC1(CO)CCC1 [Cpd 077, 5-[(2-fluorophenyl)methoxy]-N-[1-(hydroxymethyl)cyclobutyl]-2-methyl-1-benzothiophene-3-carboxamide]",< 1000 nM
12,"Cc1sc2ccc(OCc3ccccn3)cc2c1C(=O)NC1(CO)CCC1 [Cpd 078, N-[1-(hydroxymethyl)cyclobutyl]-2-methyl-5-[(pyridin-2-yl)methoxy]-1-benzothiophene-3-carboxamide]",< 1000 nM
13,"Cc1sc2ccc(OCc3cccnc3O)cc2c1C(=O)NC1(CO)CCC1 [Cpd 079, N-[1-(hydroxymethyl)cyclobutyl]-5-[(2-hydroxypyridin-3-yl)methoxy]-2-methyl-1-benzothiophene-3-carboxamide]",1000 to 20000 nM
14,"Cc1sc2ccc(OCc3ccccc3)cc2c1C(=O)NC1(CO)CCOCC1 [Cpd 080, 5-(benzyloxy)-N-[4-(hydroxymethyl)oxan-4-yl]-2-methyl-1-benzothiophene-3-carboxamide]",1000 to 20000 nM
15,"Cc1sc2ccc(OCc3ccccc3F)cc2c1C(=O)NC1(CO)CCOCC1 [Cpd 081, 5-[(2-fluorophenyl)methoxy]-N-[4-(hydroxymethyl)oxan-4-yl]-2-methyl-1-benzothiophene-3-carboxamide]",< 1000 nM
16,"Cc1sc2ccc(OCc3ccccn3)cc2c1C(=O)NC1(CO)CCOCC1 [Cpd 082, N-[4-(hydroxymethyl)oxan-4-yl]-2-methyl-5-[(pyridin-2-yl)methoxy]-1-benzothiophene-3-carboxamide]",1000 to 20000 nM
